Test results published in paper PMC6973051, “Proline‐Rich Peptides with Improved Antimicrobial Activity against E. coli, K. pneumoniae, and A. baumannii” (Chemmedchem, 2019).
Ends that are not written are not given here.

How the values were obtained:
[1] = test system: K. pneumoniae ATCC 700603; assay type: cell-based, Klebsiella pneumoniae
From the text: (§1) Table 3 MIC and MBC of the native Bac5(1–17) (wt) and selected Bac5‐derivatives on pathogenic and reference bacterial strains. | column: MBC (μM) / wt; MBC (μM) / 258; MBC (μM) / 272; MBC (μM) / 278; MBC (μM) / 281; MBC (μM) / 291

[2] = test system: P. aeruginosa ATCC 27853; assay type: cell-based, Pseudomonas aeruginosa; settings: ATCC 27853, 18 h
From the text: (§2) The following bacterial strains were used: Escherichia coli BW25113, E. coli BW25113ΔsbmA (JW0368‐1, KEIO collection21); Acinetobacter baumannii ATCC 19606, Klebsiella pneumoniae ATCC 700603, Pseudomonas aeruginosa ATCC 27853 and Staphylococcus aureus ATCC 25923. The pathogenic E. coli EURL‐VTEC A07, E. coli EURL‐VTEC C07, E. coli SSI‐NN14, E. coli EA22, E. coli SSI‐OO15 and E. coli C679‐12 strains were generously provided by the European Union Reference Laboratory for E. coli, Department of Food Safety, Nutrition and Veterinary Public Health, Istituto Superiore di Sanità, Rome, Italy. All the strains were grown overnight in Müller‐Hinton broth (MHB, Difco) at 37 °C, with shaking (140 rpm). The day after, the overnight bacterial cultures were diluted approx. 1 : 40 in fresh MHB and incubated at 37 °C with shaking (140 rpm) until an OD600nm of ≈0.3 was reached. E. coli BW25113ΔsbmA was grown in the presence of 50 μg mL^−1 kanamycin.
(§3) Peptides were diluted in 100 μL of MHB to the concentration of 128 μM, dispensed in the first wells of a 96‐wells microtiter plate (round‐bottom) and serially two‐fold diluted with MHB into successive wells in a final volume of 50 μl. Subsequently, 50 μL of a bacterial suspension (5×10^5 CFU mL^−1) were added to each well, halving the final concentration of bacteria and peptides. Bacteria were added to MHB only as bacterial growth‐control, whereas 100 μl of MHB were used to check the medium sterility. The plate was incubated overnight at 37 °C (≈18 hours) and sealed with parafilm to minimise evaporation. The MIC was calculated as the first clear well without bacterial growth. If barely detectable growth was present, the OD600nm of the plate was measured by a multiplate reader Tecan (software Sunrise). The MIC was then calculated as the well whose OD620 was≤1 % of that of the untreated growth control.

[3] = test system: A. baumannii ATCC 19606; assay type: cell-based, Acinetobacter baumannii
From the text: as §1

[4] = test system: E. coli EA22 ETEC; assay type: cell-based, Escherichia coli; settings: 18 h
From the text: as §2, §3

[5] = test system: E. coli EURL‐VTEC A07 EPEC:O111; assay type: cell-based, Escherichia coli; settings: EURL‐VTEC A07 EPEC:O111, 18 h
From the text: as §2, §3

[6] = test system: E. coli BW25113; assay type: cell-based, Escherichia coli; settings: BW25113, 18 h
From the text: as §2, §3

[7] = test system: E. coli EURL‐VTEC C07 STEC:O157; assay type: cell-based, Escherichia coli; settings: EURL‐VTEC C07 STEC:O157, 18 h
From the text: as §2, §3

[8] = test system: E. coli C679‐12 EAEC:0104; assay type: cell-based, Escherichia coli; settings: C679‐12 EAEC:0104, 18 h
From the text: as §2, §3

[9] = test system: E. coli SSI‐OO15 EIEC; assay type: cell-based, Escherichia coli; settings: 18 h
From the text: as §2, §3

[10] = test system: E. coli BW25113; assay type: cell-based, Escherichia coli
From the text: as §1

[11] = test system: S. aureus ATCC 25923; assay type: cell-based, Staphylococcus aureus; settings: ATCC 25923, 18 h
From the text: as §2, §3

[12] = test system: A. baumannii ATCC 19606; assay type: cell-based, Acinetobacter baumannii; settings: ATCC 19606, 18 h
From the text: as §2
Peptides were diluted in 100 μL of MHB to the concentration of 128 μM, dispensed in the first wells of a 96‐wells microtiter plate (round‐bottom) and serially two‐fold diluted with MHB into successive wells in a final volume of 50 μl. […] The MIC was calculated as the first clear well without bacterial growth. If barely detectable growth was present, the OD600nm of the plate was measured by a multiplate reader Tecan (software Sunrise). […]

[13] = test system: S. aureus ATCC 25923; assay type: cell-based, Staphylococcus aureus
From the text: as §1

[14] = test system: P. aeruginosa ATCC 27853; assay type: cell-based, Pseudomonas aeruginosa
From the text: as §1

[15] = test system: E. coli BW25113; experiment: Propidium iodide uptake by flow cytometry (membrane permeabilization); assay type: cell-based, Escherichia coli; settings: 1 μM colistin (positive control), 30 min
Description: The bacterial cell integrity was controlled evaluating the propidium iodide (PI) uptake by flow‐cytometry on a Cytomics FC 500 (Beckman‐Coulter). 10^4 bacterial cells were acquired for each measurement. Mid‐log phase E. coli BW25113 cultures diluted to 10^6 CFU mL^−1 in MHB were exposed for 30 min to 4 μM and 16 μM peptides at 37 °C in the presence of 10 μg mL^−1 PI. Membrane permeabilization was calculated as the % PI‐positive cells, and membrane damage measuring the mean fluorescence intensity (MFI). An untreated control received sterile water instead of peptides. By contrast, bacteria were treated with 1 μM colistin as a permeabilizing control. Data are reported as the average ± standard deviation.

RFRPPIRRPPIRPPFYP [wt, reference compound]
MBC [1]: >64 µM
MIC [2]: >64 µM
MBC [3]: >64 µM
MIC [4]: 2 µM
MIC [5]: 16 µM
MIC [6]: 16 µM
MIC [7]: >64 µM
MIC [8]: 16 µM
MIC [9]: 16 µM
MBC [10]: >64 µM
MIC [11]: >64 µM
MIC [12]: >64 µM
MBC [13]: >64 µM
MBC [14]: >64 µM

RFRPPIRRPPIRPPFYR [compound 258]
MBC [1]: >64 µM
MIC [2]: >64 µM
MBC [3]: 64 µM
MIC [4]: 2 µM
MIC [5]: 8 µM
MIC [6]: 8 µM
MIC [7]: >64 µM
MIC [8]: 8 µM
MIC [9]: 4 µM
MBC [10]: 64 µM
MIC [11]: >64 µM
MIC [12]: 64 µM
MBC [13]: >64 µM
MBC [14]: >64 µM

RFRPPWRRPPIRPPFYPG-NH2 (C-terminus assumed) [I6W]
MIC [6]: 8 µM

RFRPRIRRPPIRPPFYPG-NH2 (C-terminus assumed) [P5R]
MIC [6]: 16 µM

RFRPSIRRPPIRPPFYPG-NH2 (C-terminus assumed) [P5S]
MIC [6]: 64 µM

RFRPWIRRPPIRPPFYPG-NH2 (C-terminus assumed) [P5W]
MIC [6]: 16 µM

RFRRPIRRPPIRPPFYPG-NH2 (C-terminus assumed) [P4R]
MIC [6]: 4 µM

RFRSPIRRPPIRPPFYPG-NH2 (C-terminus assumed) [P4S]
MIC [6]: 16 µM

RFRWPIRRPPIRPPFYR [compound 272]
MBC [1]: >64 µM
MBC [3]: 16 µM
MIC [4]: 1 µM
MIC [5]: 2 µM
MIC [6]: 4 µM
MIC [7]: 8 µM
MIC [8]: 2 µM
MIC [9]: 1 µM
MBC [10]: 8 µM
MIC [11]: >64 µM
MBC [13]: >64 µM
MBC [14]: 64 µM

RFRWPIRRPPIRPPFYRG-NH2 [272 (SPOT form)]
MIC [6]: 4 µM

RFSPPIRRPPIRPPFYPG-NH2 [R3S]
MIC [6]: >64 µM

RFWPPIRRPPIRPPFYPG-NH2 [R3W]
MIC [6]: 32 µM

RGRPPIRRPPIRPPFYPG-NH2 (C-terminus assumed) [F2G]
MIC [6]: 16 µM

RPRPPIRRPPIRPPFYPG-NH2 (C-terminus assumed) [F2P]
MIC [6]: 64 µM

RRRPPIRRPPIRPPFYPG-NH2 (C-terminus assumed) [F2R]
MIC [6]: 16 µM

RSRPPIRRPPIRPPFYPG-NH2 (C-terminus assumed) [F2S]
MIC [6]: 64 µM

RWRRPIRRRPIRPPFWR [compound 291]
MBC [1]: >64 µM
MBC [3]: 16 µM
MIC [4]: 1 µM
MIC [5]: 2 µM
MIC [6]: 2 µM
MIC [7]: 2 µM
MIC [8]: 1 µM
MIC [9]: 1 µM
MBC [10]: 8 µM
MBC [13]: 64 µM
MBC [14]: >64 µM

RWRRPIRRRPIRPPFWRG-NH2 [291 (SPOT form)]
MIC [6]: 4 µM

RWRRPIRRRPIRPPFYW [compound 281]
MBC [1]: >64 µM
MBC [3]: 8 µM
MIC [4]: 2 µM
MIC [5]: 2 µM
MIC [6]: 2 µM
MIC [7]: 2 µM
MIC [8]: 2 µM
MIC [9]: 1 µM
MBC [10]: 2 µM
MBC [13]: 32 µM
MBC [14]: 48 µM

RWRRPIRRRPIRPPFYWG-NH2 [281 (SPOT form)]
MIC [6]: 4 µM

RWRWPIRRPPIRPPFYR [compound 278]
MBC [1]: 48 µM
MIC [2]: 16 µM
MBC [3]: 8 µM
MIC [4]: 1 µM
MIC [5]: 1 µM
MIC [6]: 2 µM
MIC [7]: 8 µM
MIC [8]: 2 µM
MIC [9]: 1 µM
MBC [10]: 4 µM
MIC [11]: >64 µM
MBC [13]: >64 µM
MBC [14]: 64 µM

RWRWPIRRPPIRPPFYRG-NH2 [278 (SPOT form)]
MIC [6]: 4 µM

SFRPPIRRPPIRPPFYPG-NH2 [R1S]
MIC [6]: >64 µM

WFRPPIRRPPIRPPFYPG-NH2 [R1W]
MIC [6]: 32 µM

colistin
permeabilized bacterial cells (PI‐positive) [15]: ~100%
